From US10030016B2 (Sunesis Pharmaceuticals, Inc., priority 2009, dated 2018)
Counter-ions that a name gives are not always drawn. Like-named read-outs stand apart in the source and are kept apart here.

How the values were obtained:
[1] = biological target: PDK1 (Homo sapiens (Human), UniProt O15530); test: PDK1 kinase assay (coupled PDK1/AKT/FAM-crosstide assay, IMAP fluorescence polarization); assay type: biochemical
How it was run: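 Coupled cascade: 0.75 nM PDK1 (51-359) → 10 nM AKT2 (140-467-PIFtide) → 100 nM FAM-crosstide. ATP 40 μM, 25° C, 30 min. IMAP FP (ex 485/em 530), 2 h binding. ΔmP vs conc, 4-param fit.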

[2] = tested on: phospho-akt (Thr308) in PC-3 cells; test: Inhibition of phospho-akt (Thr308) in PC-3 cells, MSD phospho-akt 308 ELISA kit; assay type: cell-based; details: Homo sapiens
How it was run: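 Phospho-Akt (Thr308) levels were measured by MSD ELISA after PC-3 cells received compound for 2 hours in serum-free medium. Controls: DMSO (high), 5 μM wortmannin (low).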

[3] = inhibition of P308 Akt in PC-3 cells using MSD, 2 hours, no serum, read-out: EC50
[4] = inhibition of phospo-PDK1 in vitro
[5] = inhibition of P308 Akt in PC-3 cells, 2 hours, no serum, MSD, read-out: EC50
[6] = PC-3, 2 h, inhibition of P308 Akt in PC-3 cells, 2 hours, no serum, MSD, read-out: EC50

Sequence of PDK1 (O15530 51-359): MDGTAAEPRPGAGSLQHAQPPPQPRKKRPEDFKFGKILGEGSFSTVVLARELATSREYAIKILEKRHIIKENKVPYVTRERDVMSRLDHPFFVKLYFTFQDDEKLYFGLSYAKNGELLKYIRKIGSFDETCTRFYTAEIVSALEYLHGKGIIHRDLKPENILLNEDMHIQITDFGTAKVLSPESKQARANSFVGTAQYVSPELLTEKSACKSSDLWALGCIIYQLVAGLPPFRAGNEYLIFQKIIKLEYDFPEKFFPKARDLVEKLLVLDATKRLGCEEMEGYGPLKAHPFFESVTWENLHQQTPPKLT

IC50 ([1]; inhibition of PDK1 in vitro) [µM]	EC50 [2, 3] [µM]	IC50 [1, 4] [µM]	EC50 [2, 5] [µM]	SMILES	other results
–	–	< 0.1	< 1	Nc1ncnc2ccc(-c3ccc(CNc4ncccc4C(=O)NCc4cccc(F)c4)s3)cc12 [Example 3.9, 2-({[5-(4-aminoquinazolin-6-yl)thiophen-2-yl]methyl}amino)-N-(3-fluorobenzyl)pyridine-3-carboxamide (TFA salt)]	–
–	–	> 5	> 10	Nc1ncnc2ccc(-c3ccc(CNc4ncccc4C(=O)NCc4cc(F)ccc4C(F)(F)F)s3)cc12 [Example 3.12, 2-({[5-(4-aminoquinazolin-6-yl)thiophen-2-yl]methyl}amino)-N-[5-fluoro-2-(trifluoromethyl)benzyl]pyridine-3-carboxamide (TFA salt)]	–
–	–	< 0.1	< 1	Nc1ncnc2ccc(-c3ccc(CNc4ncc(Br)cc4C(=O)NCc4ccc(F)c(F)c4)s3)cc12 [Ex. 8.9, 2-({[5-(4-aminoquinazolin-6-yl)thiophen-2-yl]methyl}amino)-N-(3,4-difluorobenzyl)-5-bromopyridine-3-carboxamide]	–
–	–	< 0.1	> 10	O=C(NCc1ccc(F)c(F)c1)c1cccnc1NCc1cccc(-c2ccc3ncnc(NC4CC4)c3c2)c1 [Example 6.3, 2-(3-(4-(cyclopropylamino)quinazolin-6-yl)benzylamino)-N-(3,4-difluorobenzyl)-nicotinamide]	–
–	–	> 5	> 10	C[C@@H](NC(=O)c1cccnc1NCc1ccc(-c2ccc3ncnc(N)c3c2)s1)c1cccc(F)c1 [Example 3.20, 2-({[5-(4-aminoquinazolin-6-yl)thiophen-2-yl]methyl}amino)-N-[(1R)-1-(3-fluorophenyl)ethyl] pyridine-3-carboxamide (TFA salt)]	–
–	–	0.1 to 1	–	C[C@@H](c1ccc(F)c(F)c1)n1cnc2ccnc(NCc3ccc(-c4cc5c(N)ncnc5cn4)s3)c2c1=O [Example 7.11, 5-({[5-(4-aminopyrido [3,4-d]pyrimidin-6-yl)thiophen-2-yl]methyl}amino)-3-[(1S)-1-(3,4-difluorophenyl)ethyl] pyrido[4,3-d]pyrimidin-4(3H)-one]	EC50 [2, 6]: < 1 µM
–	–	0.1 to 1	< 1	C[C@H](NC(=O)c1cc(C(F)(F)F)cnc1NC/C=C/c1ccc2c(c1)NC(=O)/C2=C\c1cnc[nH]1)c1ccc(F)c(F)c1 [Example 15.2, 2-((E)-3-((Z)-3-((1H-imidazol-5-yl)methylene)-2-oxoindolin-6-yl)allylamino)-N-((S)-1-(3,4-difluorophenyl)ethyl)-5-(trifluoromethyl)nicotinamide]	–

The remaining lines, values behind:

SMILES	IC50 ([1]; inhibition of PDK1 in vitro) [µM]	EC50 [2, 3] [µM]	IC50 [1, 4] [µM]	EC50 [2, 5] [µM]	other results
C[C@H](NC(=O)c1cc(C#N)cnc1NCc1ccc(-c2cnc(NCCN(C)C)cn2)cc1)c1ccc(F)cc1 [Example 226, 5-Cyano-2-{4-[5-(2-dimethylamino-ethylamino)-pyrazin-2-yl]-benzylamino}-N-[(S)-1-(4-fluoro-phenyl)-ethyl]-nicotinamide]	> 5	> 10	–	–	–
C[C@H](NC(=O)c1cc(C#N)cnc1NCc1ccc(-c2cnc(N)c(O[C@H]3CCNC3)n2)cc1)c1ccc(F)cc1 [Example 162, 2-{4-[5-Amino-6-((S)-pyrrolidin-3-yloxy)-pyrazin-2-yl]-benzylamino}-5-cyano-N-[(S)-1-(4-fluoro-phenyl)-ethyl]-nicotinamide]	< 0.1	< 1	–	–	–
Nc1ncnc2c1c(-c1ccc(CNc3ncc(C(F)(F)F)cc3C(=O)NCc3ccc(F)c(F)c3)cc1)cn2CCCO [Example 334, 2-(4-(4-amino-7-(3-hydroxypropyl)-7H-pyrrolo[2,3-d]pyrimidin-5-yl)-benzylamino)-N-(3,4-difluorobenzyl)-5-(trifluoromethyl)nicotinamide]	< 0.1	< 1	–	–	–
CS(=O)(=O)Nc1cnc(NCc2ccc(-c3ccc4ncnc(N)c4c3)s2)c(C(=O)NCc2ccc(F)c(F)c2)c1 [Ex. 8.6.1, 2-({[5-(4-aminoquinazolin-6-yl)thiophen-2-yl]methyl}amino)-N-(3,4-difluorobenzyl)-5-[(methylsulfonyl)amino]pyridine-3-carboxamide]	–	–	< 0.1	< 1	–
CN1CCN(S(=O)(=O)c2cnc(NCc3ccc(-c4ccc5ncnc(N)c5c4)s3)c(C(=O)NCc3ccc(F)c(F)c3)c2)CC1 [Example 8.6.10, 2-(((5-(4-aminoquinazolin-6-yl)thiophen-2-yl)methyl)amino)-N-(3,4-difluorobenzyl)-5-(4-methylpiperazin-1-ylsulfonyl)nicotinamide]	–	–	0.1 to 1	–	EC50 [2, 6]: 1 to 10 µM
N#Cc1cnc(NCc2ccc(-c3cnc4[nH]nc(N)c4c3)cc2)c(C(=O)NCc2ccc(F)cc2)n1 [Example 33, 3-(4-(3-amino-1H-pyrazolo[3,4-b]pyridin-5-yl)benzylamino)-6-cyano-N-(4-fluorobenzyl) pyrazine-2-carboxamide]	–	–	< 0.1	< 1	–
C[C@H](NC(=O)c1cc(C#N)cnc1NCc1ccc(-c2cnc3[nH]nc(N)c3c2)cc1)c1ccc(F)cc1 [Example 122, (S)-2-(4-(3-amino-1H-pyrazolo[3,4-b]pyridin-5-yl)benzylamino)-5-cyano-N-(1-(4-fluorophenyl)ethyl) nicotinamide]	< 0.1	< 1	–	–	–
CC(C)Oc1cc(CNc2ncccc2C(=O)N[C@@H](C)c2ccccc2)cc(-c2c[nH]c3ncc(C(=O)NC4CC4)cc23)c1 [Example 4.1.13, N-cyclopropyl-3-[3-{[(3-{[(1S)-1-phenylethyl]carbamoyl}pyridin-2-yl)amino]methyl}-5-(propan-2-yloxy)phenyl]-1H-pyrrolo[2,3-b] pyridine-5-carboxamide]	–	–	< 0.1	1 to 10	–
N#Cc1ccc(NCc2ccc(-c3ccc4ncnc(N)c4c3)s2)c(C(=O)NCc2ccc(F)c(F)c2)c1 [Example 247, 2-(((5-(4-aminoquinazolin-6-yl)thiophen-2-yl)methyl)amino)-5-cyano-N-(3,4-difluorobenzyl)benzamide]	< 0.1	> 10	–	–	–
COc1cnc(NCc2ccc(-c3ccc4ncnc(N)c4c3)s2)c(C(=O)NCc2ccc(F)c(F)c2)c1 [Example 8.1.2, 2-({[5-(4-aminoquinazolin-6-yl)thiophen-2-yl]methyl}amino)-N-(3,4-difluorobenzyl)-5-methoxypyridine-3-carboxamide]	–	–	< 0.1	< 1	–
N#Cc1cnc(NCc2ccc(-c3cnc(N)cn3)cc2)c(C(=O)NCc2ccc(F)c(F)c2)c1 [Example 377, 2-(4-(5-aminopyrazin-2-yl)benzylamino)-5-cyano-N-(3,4-difluorobenzyl) nicotinamide]	< 0.1	1 to 10	–	–	–
C[C@H](NC(=O)c1cccnc1NCc1ccc(-c2cc3c(N)ncnc3cn2)s1)c1ccc(F)cc1 [Example 2.13.1, (S)-2-(((5-(4-aminopyrido[3,4-d]pyrimidin-6-yl)thiophen-2-yl)methyl)amino)-N-(1-(4-fluoro-phenyl)ethyl)nicotinamide]	–	–	0.1 to 1	–	EC50 [2, 6]: 1 to 10 µM
N#Cc1cnc(NCc2ccc(-c3cnc4[nH]c(=O)[nH]c4c3)cc2)c(C(=O)NCc2ccc(F)c(F)c2)c1 [Example 356, 5-cyano-N-(3,4-difluorobenzyl)-2-(4-(2-oxo-2,3-dihydro-1H-imidazo[4,5-b]pyridin-6-yl)benzylamino)nicotinamide]	< 0.1	< 1	–	–	–
CC(N)CCc1nc(-c2ccc(CNc3ncc(C#N)nc3C(=O)N[C@@H](C)c3ccc(F)c(F)c3)cc2)cnc1N (stereo partly drawn) [Example 87, 3-{4-[5-Amino-6-(3-amino-butyl)-pyrazin-2-yl]-benzylamino}-6-cyano-pyrazine-2-carboxylic acid [(S)-1-(3,4-difluoro-phenyl)-ethyl]-amide]	< 0.1	< 1	–	–	–
CC(C)(N)COc1nc(-c2ccc(CNc3ncc(C(F)(F)F)cc3C(=O)Nc3ccc(F)cc3)cc2)cnc1N [Example 200, 2-{4-[5-Amino-6-(2-amino-2-methyl-propoxy)-pyrazin-2-yl]-benzylamino}-N-(4-fluoro-phenyl)-5-trifluoromethyl-nicotinamide]	< 0.1	1 to 10	–	–	–
C[C@H](NC(=O)c1nc(C#N)cnc1NCc1ccc(-c2cn(C)c3ncnc(N)c23)cc1)c1ccc(F)c(F)c1 [Example 27, (S)-3-(4-(4-amino-7-methyl-7H-pyrrolo[2,3-d]pyrimidin-5-yl)benzylamino)-6-cyano-N-(1-(3,4-difluorophenyl)ethyl)pyrazine-2-carboxamide]	–	–	< 0.1	< 1	–
C[C@H](NC(=O)c1nc(C#N)cnc1NCc1ccc(-c2cnc3[nH]nc(N)c3n2)cc1)c1ccc(F)c(F)c1 [Example 182, 3-[4-(3-Amino-1H-pyrazolo[3,4-b]pyrazin-5-yl)-benzylamino]-6-cyano-pyrazine-2-carboxylic acid [(S)-1-(3,4-difluoro-phenyl)-ethyl]-amide]	< 0.1	–	–	–	EC50 ([2]; PC-3, 2 h): < 1 µM
Nc1ccc(-c2ccc(CNc3ncccc3C(=O)NCc3cncc(F)c3)cc2)cn1 [Example 373, 2-(4-(6-aminopyridin-3-yl)benzylamino)-N-((5-fluoropyridin-3-yl)methyl)nicotinamide]	1 to 5	1 to 10	–	–	–
Nc1n[nH]c2ncc(-c3ccc(CNc4ncc(C(F)(F)F)cc4C(=O)NC4CC4)cc3)cc12 [Example 260, 2-(4-(3-amino-1H-pyrazolo[3,4-b]pyridin-5-yl)benzylamino)-N-cyclopropyl-5-(trifluoromethyl)nicotinamide]	0.1 to 1	1 to 10	–	–	–
